ChEMBL document CHEMBL3804831, “N-Acyl Dehydrotyrosines, Tyrosinase Inhibitors from the Marine Bacterium Thalassotalea sp. PP2-459” (J Nat Prod, 2016)
pIC50: −log10 of the molar value. Activity calls are given as the source filed them. The calls are words filed in the database; no cut-off is given here.

Tests used:
[1] = biological target: T1, Tyrosinase (Agaricus bisporus) (UniProt O42713); assay: Inhibition of mushroom tyrosinase at 1 mM using L-tyrosine as a substrate after 30 mins by spectrophotometric method
T1 sequence (whole entry): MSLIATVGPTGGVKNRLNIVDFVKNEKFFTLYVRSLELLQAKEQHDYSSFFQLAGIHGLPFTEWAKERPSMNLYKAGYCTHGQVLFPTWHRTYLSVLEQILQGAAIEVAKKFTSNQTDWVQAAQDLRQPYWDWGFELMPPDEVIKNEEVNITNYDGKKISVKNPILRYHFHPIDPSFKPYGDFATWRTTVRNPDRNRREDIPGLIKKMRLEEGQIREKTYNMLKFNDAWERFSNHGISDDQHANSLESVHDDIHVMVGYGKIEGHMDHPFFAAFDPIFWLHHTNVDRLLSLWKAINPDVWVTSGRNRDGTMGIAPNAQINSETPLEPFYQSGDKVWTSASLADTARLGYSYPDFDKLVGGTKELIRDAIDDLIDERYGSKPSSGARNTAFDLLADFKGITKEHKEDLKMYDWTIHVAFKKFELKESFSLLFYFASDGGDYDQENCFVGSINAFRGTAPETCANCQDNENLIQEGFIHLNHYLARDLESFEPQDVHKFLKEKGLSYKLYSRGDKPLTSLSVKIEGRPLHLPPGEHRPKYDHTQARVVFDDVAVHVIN

[2] = biological target: T2, Tyrosinase (Agaricus bisporus, UniProt O42713)
T2 sequence (O42713 whole entry): T1 sequence (whole entry)
Description: Inhibition of mushroom tyrosinase using L-tyrosine as a substrate after 30 mins by spectrophotometric method

Row | inhibition [1] | pIC50 [2] | SMILES
1 | inactive |  | CC(C)CCCCCCC(=O)N/C(=C\c1ccc(O)cc1)C(N)=O
2 | inactive |  | CCCCCCCCCC(=O)N/C(=C\c1ccc(O)cc1)C(N)=O
3 |  | 3.55 | CCCCCCCCC(=O)N/C(=C\c1ccc(O)cc1)C(=O)O
4 |  | 3.89 | CCCCCCCCCC(=O)N/C(=C\c1ccc(O)cc1)C(=O)O
5 |  | 3.33 | CC(C)CCCCCCC(=O)N/C(=C\c1ccc(O)cc1)C(=O)O
